Experimental data: patent US11396493B2, “Amorphous pyrrolidine derivative as PPAR agonist and preparation method thereof” (GUANGDONG RAYNOVENT BIOTECH CO., LTD., priority 2017, dated 2022)

Legend:
[1] = tested on: CCl4-induced C57BL/6 mouse acute liver injury; test: CCl4-induced C57BL/6 mouse acute liver injury experiment; format: in vivo; conditions: no data shown
[2] = molecular target: T1, PPAR Delta (Homo sapiens, UniProt Q03181); test: PathHunter NHR protein interaction test, agonist mode, PPAR Delta; format: cell-based
T1 sequence (Q03181 1-441): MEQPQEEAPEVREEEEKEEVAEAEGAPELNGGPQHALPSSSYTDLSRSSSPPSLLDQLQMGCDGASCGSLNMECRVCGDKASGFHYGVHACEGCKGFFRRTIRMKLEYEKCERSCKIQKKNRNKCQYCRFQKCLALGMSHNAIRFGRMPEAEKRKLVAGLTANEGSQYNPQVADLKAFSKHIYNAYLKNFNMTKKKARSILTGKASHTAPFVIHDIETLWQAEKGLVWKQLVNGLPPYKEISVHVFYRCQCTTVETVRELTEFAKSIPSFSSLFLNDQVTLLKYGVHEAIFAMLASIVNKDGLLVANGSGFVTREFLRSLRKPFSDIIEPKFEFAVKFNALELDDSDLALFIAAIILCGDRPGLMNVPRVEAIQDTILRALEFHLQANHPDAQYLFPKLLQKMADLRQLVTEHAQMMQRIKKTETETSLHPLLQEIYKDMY
From the text: (§1) Principles of in Vitro Test of PPAR Agonist Activity
(§2) Nuclear Hormone Receptor (NHR) Test
(§3) PathHunter's NHR protein interaction and nuclear transfer test are used to detect the activation ability of nuclear hormone receptor in a uniform, non-imaging experiment. This technology is called as enzyme fragment complementation […], and is developed by DiscoverX.
(§4) NHR protein test is based on the detection of the protein-protein interaction between a standard length of NHR protein in an activated state and a nuclear fusion protein containing a steroid receptor co-activating peptide (SRCP) region and one or more standard LXXLL acting sequences.
(§5) NHR is labeled on the ProLink™ component of an EFC test system, and the SRCP region and the enzyme receptor component (EA) are fused and expressed in the nucleus. When bound to the ligand, the NHR will transfer to the nucleus and obtain the SRCP region in which a complementary effect is produced, thereby generating an equivalent amount of activated-galactosidase (-Gal), accompanied by the generation of chemical light signals. The benefits associated with this pathway include reduced incubation time of the compound, direct test of an NHR target, use of human NHR sequences with a standard length, and selection of some new classes of compounds based on the disruption of protein-protein interactions.
(§6) The NHR NT test detected the transfer of an NHR between the cytoplasmic and nuclear compartments. The receptor was labeled on the ProLink™ component of the EFC test system, while the EA and nuclear sequence were fused, thereby limiting the expression of EA on the nucleus. Nucleus transfer leaded to the complementary effect with EA, thereby generating one equivalent of activated galactosidase (-Gal), accompanied by the generation of chemical light signals.
(§7) 1. PathHunter NHR cell strains were spread from a frozen stock in accordance with standard operations.
(§8) 2. Cells were seeded onto a 384-well white cell plate of 20 uL/well, and incubated at 37° C. for an appropriate time prior to test. The culture medium contained activated carbon dextran with filtered serum to reduce the level of hormone expression.
(§9) Experiments of Agonist Mode:
(§10) 1. As for the measurement of an agonist activity, it is required to incubate the cells with the compound to induce a response.
2. […]
(§11) 2. The chemiluminescence signals generated by the microplate were to be detected by a PerkinElmer Envision instrument.
(§12) 1. The activity of the compound was analyzed by CIBS data analysis software (ChemInnovation, CA).
(§13) 2. For experiments of agonist mode, the percentage activity is calculated by the following formula: % activity=100%×(the mean RLU of the compound to be tested−the mean background RLU of the medium)/(the mean of maximum control of the ligand−the mean background RLU of the medium)

[3] = molecular target: T2, PPAR Alpha (Homo sapiens, UniProt Q07869); test: PathHunter NHR protein interaction test, agonist mode, PPAR Alpha; format: cell-based
T2 sequence (Q07869 1-468): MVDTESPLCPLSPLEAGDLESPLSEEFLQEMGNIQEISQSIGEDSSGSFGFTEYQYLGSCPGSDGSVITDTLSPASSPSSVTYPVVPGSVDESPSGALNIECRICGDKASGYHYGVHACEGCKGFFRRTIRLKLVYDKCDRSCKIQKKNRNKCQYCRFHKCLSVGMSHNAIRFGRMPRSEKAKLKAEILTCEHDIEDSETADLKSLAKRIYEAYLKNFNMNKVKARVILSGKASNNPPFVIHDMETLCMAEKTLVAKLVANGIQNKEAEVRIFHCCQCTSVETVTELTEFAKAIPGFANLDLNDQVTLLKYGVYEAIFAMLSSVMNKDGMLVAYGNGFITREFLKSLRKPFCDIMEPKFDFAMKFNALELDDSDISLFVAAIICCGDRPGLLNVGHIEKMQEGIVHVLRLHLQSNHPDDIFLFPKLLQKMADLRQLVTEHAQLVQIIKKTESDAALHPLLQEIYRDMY
From the text: as §1, §2, §3, §4, §5, §6, §7, §8, §9, §10
2. […]
as §11, §12, §13

[4] = molecular target: T3, PPAR Gamma (Homo sapiens, UniProt P37231); test: PathHunter NHR protein interaction test, agonist mode, PPAR Gamma; format: cell-based
T3 sequence (P37231 1-505): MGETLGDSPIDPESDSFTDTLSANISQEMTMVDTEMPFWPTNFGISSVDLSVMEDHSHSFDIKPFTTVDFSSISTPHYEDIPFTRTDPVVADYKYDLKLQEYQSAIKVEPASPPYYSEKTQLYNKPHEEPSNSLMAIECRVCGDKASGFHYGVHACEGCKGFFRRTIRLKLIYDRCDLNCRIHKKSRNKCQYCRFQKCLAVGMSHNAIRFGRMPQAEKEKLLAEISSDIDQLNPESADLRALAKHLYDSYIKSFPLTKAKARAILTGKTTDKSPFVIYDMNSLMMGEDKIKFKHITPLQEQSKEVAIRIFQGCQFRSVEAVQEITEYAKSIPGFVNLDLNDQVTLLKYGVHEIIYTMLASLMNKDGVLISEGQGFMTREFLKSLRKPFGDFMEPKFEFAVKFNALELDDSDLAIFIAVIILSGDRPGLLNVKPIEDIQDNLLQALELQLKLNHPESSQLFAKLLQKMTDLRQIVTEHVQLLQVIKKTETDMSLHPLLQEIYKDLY
From the text: as §1, §2, §3, §4, §5
The NHR NT test detected the transfer of an NHR between the cytoplasmic and nuclear compartments. […]
as §11, §12, §13

[5] = tested on: MCD diet-induced db/db mouse NASH; test: MCD diet-induced db/db mouse NASH model; format: in vivo; conditions: no data shown

CSc1ccc(C(=O)[C@@H]2CN(C(=O)Oc3ccccc3)C[C@H]2Cc2cc(C)c(OC(C)(C)C(=O)O)c(C)c2)cc1 [Compound of formula (I)]
effect on liver injury [1]: significantly improving effect
EC50 ([2]; agonist mode): < 100 nM
activation effect on PPAR Delta receptor ([2]; summary of Table 5): significant activation effect
EC50 ([3]; agonist mode): < 100 nM
activation effect on PPAR Alpha receptor ([3]; summary of Table 5): significant activation effect
EC50 ([4]; agonist mode): > 250 nM
activation effect on PPAR Gamma receptor ([4]; summary of Table 5): selective activation effect
effect on NAS Score [5]: significantly improving effect
effect on liver fibrosis [5]: significantly improving effect
